Data: US12162935B2, “Regimens, compositions and methods with capsaicin and TNF-alpha inhibitor” (priority 2018, dated 2024)

Legend:
[1] = system: Wistar rats; assay: ABR threshold shifts, cisplatin-induced hearing loss; format: in vivo, rat
Method: Adult male Wistar rats (200-350 g) (from Envigo) were used for this study. Rats were housed in a temperature controlled room with a twelve hour light/dark cycle. They had free access to commercial food and water provided by the SIU Laboratory Animal Care facility.
Prior to experiments, rats were anesthetized with ketamine HCl/xylazine mixture (24.6/3 mg/kg) and then placed in a sound-attenuation chamber (Industrial Acoustic Company, Inc.). Body temperature of the rats was maintained at 37° C. with an animal blanket system. Pretreatment auditory brainstem responses (ABRs) was performed using an IHS-High-frequency System (Intelligent Hearing Systems, Miami, FL). The rats were exposed to acoustic stimuli via HIS transducers that were directly placed at the entrance of the ear canal. ABR thresholds were obtained for 5 ms duration tone bursts at 8, 16 and 32 kHz at a rate of 50/s. Thresholds were determined by visually produced lowest intensity evoked potentials (EP) that progressed in 10 dB steps. Evoked potentials (Eps) were amplified to 200,000×, and were band pass filtered (100-3000 Hz) and averaged over 1024 sweeps [Mukherjea et al., 2010].
At the end of auditory testing, the anesthetized animals were decapitated and the cochlea harvested. The SIU Laboratory Animal Care and Use Committee approved all animal procedures.
Male Wistar rats were anesthetized using ketamine/xylazine cocktail. The tympanic membrane was punctured as described in [Mukherjea et al., 2010].

[2] = system: UB/OC-1 cells; assay: Cell viability assay (MTS assay); format: cell-based
Method: The in vitro UB/OC1 cell proliferation was performed by using the CellTiter 96® AQueous One Solution Cell Proliferation Assay Kit (Promega, Madison, WI), according to the manufacturer's instructions. 3,500 cells were seeded per well into a 96-well plate. […] After 48 h, 20 μl of CellTiter 96 AQueous One Solution reagent was added to each well in 100 μl of total volume of media. Cells were incubated for 1 h, and recorded absorbance at 490 nm using an ELISA plate reader. The absorbance is directly proportional to the number of living cells and is expressed as a percent relative to vehicle-treated cells.

[3] = system: UB/OC-1 cells; assay: Western blot of STAT1, STAT3 and JAK2 phosphorylation; format: cell-based, mouse
[4] = molecular target: TRPV1 (Homo sapiens, UniProt Q8NER1); assay: Ca2+ imaging (Fluo-4AM) in HEKVR1 cells; format: cell-based
Sequence of TRPV1 (Q8NER1 whole entry, species assumed): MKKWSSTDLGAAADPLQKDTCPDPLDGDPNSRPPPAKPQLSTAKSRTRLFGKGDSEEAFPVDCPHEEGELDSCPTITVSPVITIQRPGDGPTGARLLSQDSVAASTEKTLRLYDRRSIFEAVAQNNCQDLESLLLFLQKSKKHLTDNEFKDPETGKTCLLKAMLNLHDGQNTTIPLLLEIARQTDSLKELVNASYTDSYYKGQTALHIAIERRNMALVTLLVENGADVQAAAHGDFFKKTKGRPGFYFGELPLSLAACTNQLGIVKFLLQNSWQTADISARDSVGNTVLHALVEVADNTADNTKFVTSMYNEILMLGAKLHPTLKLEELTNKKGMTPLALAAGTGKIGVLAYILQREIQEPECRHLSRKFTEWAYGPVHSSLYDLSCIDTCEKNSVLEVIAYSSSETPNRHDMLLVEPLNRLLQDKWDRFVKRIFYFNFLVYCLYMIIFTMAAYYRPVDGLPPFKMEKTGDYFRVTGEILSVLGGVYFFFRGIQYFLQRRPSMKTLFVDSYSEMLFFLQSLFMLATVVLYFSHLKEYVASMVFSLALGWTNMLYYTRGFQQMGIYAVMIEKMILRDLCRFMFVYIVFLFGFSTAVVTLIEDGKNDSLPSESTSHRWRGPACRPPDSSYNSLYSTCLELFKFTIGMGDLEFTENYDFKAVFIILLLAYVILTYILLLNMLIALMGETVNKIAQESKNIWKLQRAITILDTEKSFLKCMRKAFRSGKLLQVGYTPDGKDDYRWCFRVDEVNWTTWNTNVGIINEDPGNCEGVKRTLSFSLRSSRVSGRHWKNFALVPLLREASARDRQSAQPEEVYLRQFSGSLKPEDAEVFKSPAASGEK
Description: (§1) NE has been linked to immediate increase in ROS generation and persistent oxidative stress in the cochlea2, leading to generation of reactive oxygen species such as: hydroxyl […] (OH^−), superoxide anion (O^2—) and hydrogen peroxide (H2O2).

[5] = system: ERK1/2; assay: ERK1/2 activation by western blotting; format: cell-based, mouse; settings: 100 μM H2O2 or TNF-α 0.1 μg/ml
[6] = system: UB/OC-1 cells; assay: Ca2+ imaging (Fluo-4AM) in UB/OC-1 cells; format: cell-based, mouse
Description: as §1

[7] = system: UB/OC1 cells; assay: Cell death by TUNEL
Method: UB/OC1 cells were treated with either scrambled siRNA or TRPV1 siRNA for 24 h.

[8] = system: outer hair cells (OHCs); assay: Outer hair cell damage by SEM and whole mount hair cell count; format: in vivo, rat; settings: basal turn, cisplatin
Description: Immediately after completion of post-treatment ABRs, rats were euthanized and their cochleae were harvested and the specimens processed as described previously by [Kamimura et al.]. Sputter-coated cochlea were viewed and photographed with a Hitachi S-500 scanning electron microscope (Hitachi Ltd.). The resulting scanning electron micrographs were examined to determine qualitative morphological characteristics in various regions including the basal, middle, and apical turns of the rat cochlea.
Two representative areas of the basal turn, middle turn, and apex and hook portion were photographed. In each area, outer hair cells (OHCs) were counted in an area that was 10 pillar cell heads in length. The results are presented as the percentage hair cell damage per cochlear turn. At least three cochleae from different animals per treatment group were used.
To study the organization of the outer hair cells and inner hair cells, the cochlear whole mount technique was used. The cochleae was fixed in fresh 4% paraformaldehyde overnight, and then decalcified in […] EDTA for 2 weeks, (pH 7.3) while stirring at room temperature for 2 weeks. After decalcification, the cochleae was microdissected into basal, middle, and apical turns for whole-mount preparation.
For further processing, segments were washed with 1×PBS twice for 5 mins. For blocking, the segments were incubated in 10% blocking serum (horse serum) for 3 hrs at room temperature. The segments were incubated with primary antibody in 0.2% Triton prepared in PBS and refrigerated overnight. The following day, the segments were washed in PBS (three washes) for 5 mins each wash. The segments were washed in secondary antibody for 2 hrs at room temperature in the dark. The antibodies were then washed with PBS (three washes). Glass coverslips were then mounted on the segments with ProLong Diamond Antifade Mountant (Thermo Fisher Scientific) and incubated them at room temperature overnight and then stored them in 4 degrees. Images were procured using a Leica confocal microscope (Buffalo Grove, IL).
For hair cell count in whole mount preparations, two to three random areas from the basal turn from each treatment group separately were selected. Hair cells were counted in […] segments of the cochlea respectively. Counts were averaged across treatment group. This was further normalized as % of PBS (control) by taking the values of control as 100%.

[9] = system: rat cochlea; assay: Immunolabelling of mid-modiolar cochlear sections, fluorescent intensity analyses; format: in vivo
Method: Cochleae were perfused with a 4% paraformaldehyde solution, cochleae were decalcified for 7-10 days in 120 mM EDTA, embedded them in paraffin and then sectioned the specimens [Mukherjea et al., 2010]. Slides were deparaffined, rehydrated and then stained with primary and secondary antibodies. Glass coverslips were mounted on the specimens with ProLong Diamond mounting medium. Images were obtained using a Leica confocal microscope (Buffalo Grove, IL).
Image J software was used to analyze the mean gray area for the various images. These values were then used to quantify the increase or decrease in % fluorescence intensity of the various regions of the samples compared to control.

[10] = system: UMSCC-10b cells; assay: SCID mouse xenograft model; format: in vivo; settings: single agent: cisplatin 2 mg/kg ip or oral capsaicin 0.5 mg/kg
Method: SCID mice (from Envigo, 5-6 weeks of age) were injected subcutaneously with 1.5×10^6 mycoplasma-free UMSCC 10B cells in one flank. […] At the time of each treatment, tumor volumes were calculated based on the formula: volume=width2×(length/2) [Jajoo et al.]. Mice were killed 24 h after the eleventh treatment. All procedures were performed in accordance with relevant guidelines and regulations of SIU School of Medicine.

[11] = system: rat cochlea; assay: Cochlear gene expression by q-PCR (cisplatin study); format: in vivo; settings: 72 h following cisplatin
[12] = TNF-α 0.1 μg/ml 60 seconds prior to 100 μM H2O2, till 5 minutes
[13] = capsaicin 2.5 μM 30 min and/or cisplatin 2.5 μM 45 min (FIG. 5.E)
[14] = BCTC 100 nM 45 min then capsaicin 2.5 μM

**Q.** Which ABR thresholds ([1]; AM630 trans-tympanic alone or in combination with capsaicin) does the source give for COc1ccc(C(=O)c2c(C)n(CCN3CCOCC3)c3cc(I)ccc23)cc1 [AM630] here?
**A.** Its ABR thresholds is “significant increases in ABR thresholds”.

**Q.** What about the “effect on capsaicin protection against cisplatin-induced hearing loss” value ([1]; AM630 trans-tympanic before oral capsaicin 20 mg/kg and cisplatin) of the same compound?
**A.** Its value is “reversed the protective effect of oral capsaicin”.

**Q.** What about the “cell viability compared to capsaicin” value ([2]; AM630 30 minutes prior to capsaicin for 24 h) of the same compound?
**A.** The value was “significantly decreased cell viability”.

**Q.** What about the “capsaicin-induced Ser^727 p-STAT1” value [3] of the same compound?
**A.** Its value is “significantly decreased”.

**Q.** What about the “capsaicin-induced Tyr p-STAT3” value [3] of the same compound?
**A.** The value was “significantly decreased”.

**Q.** What about the “JWH015 increase of p-STAT3” value ([3]; AM630 10 μM 30 min before JWH015) of the same compound?
**A.** Its value is “reversed”.

**Q.** For TNF-α, which H2O2-induced calcium release [4, 12] is on record?
**A.** Its H2O2-induced calcium release is “prolonged sustained calcium release”.

**Q.** And the “time of highest ERK activation post treatment” value [5]?
**A.** Its value is 30 min.

**Q.** What about the H2O2-induced calcium release [6, 12] of the same compound?
**A.** The H2O2-induced calcium release was “prolonged sustained calcium release”.

**Q.** For COc1cccc(-c2cc(=O)c3ccccc3o2)c1N [PD98059], which H2O2-induced calcium release ([4]; 10 μM PD98059 pre-treatment) is on record?
**A.** The H2O2-induced calcium release was “little or no calcium release”.

**Q.** What about the H2O2-induced calcium release ([6]; 10 μM PD98059 pre-treatment) of the same compound?
**A.** Its H2O2-induced calcium release is “little or no calcium release”.

**Q.** And the “cell death/apoptosis by 100 μM H2O2” value [7]?
**A.** Its value is “significantly decreased cell death”.

**Q.** How did the “loss or damage of outer hair cells compared to vehicle controls” value ([8]; SEM) turn out when N.N.[Cl][Pt][Cl] [cisplatin] was run?
**A.** The value was “ten-fold”.

**Q.** And the “outer hair cell death” value ([8]; whole mount, myosin VIIa)?
**A.** Its value is 43±4%.

**Q.** What about the “CB2 labelling in the OHCs, SGs and SVA” value ([9]; single agent) of the same compound?
**A.** The value was “did not significantly change”.

**Q.** What about the “TRPV1, NOX3 and iNOS labelling in the OHCs, SG and SVA” value ([9]; single agent vs control) of the same compound?
**A.** Its value is “significantly increased”.

**Q.** And the “Tyr p-STAT3” value ([3]; 2.5 μM, at 120 minutes)?
**A.** The value was “sustained inhibition”.

**Q.** What about the JAK2 phosphorylation ([3]; 2.5 μM, time course) of the same compound?
**A.** Its JAK2 phosphorylation is “persistent and significant reductions”.

**Q.** And the “Ser^727 p-STAT1” value ([3]; 2.5 μM, up to 120 min)?
**A.** Its value is “persistent increase”.

**Q.** What about the p-STAT1 [3, 13] of the same compound?
**A.** Its p-STAT1 is 120±2%.

**Q.** And the p-STAT3 [3, 13]?
**A.** The p-STAT3 was 106.5±2.5%.

**Q.** What about the “tumor growth (volume, size, weight)” value [10] of the same compound?
**A.** Its value is “significantly reduced”.

**Q.** What about the “increases in TRPV1, NOX3 and INOS expression” value [11] of the same compound?
**A.** Its value is 2-3 fold.

**Q.** What does the source list for CC(C)(C)c1ccc(NC(=O)N2CCN(c3ncccc3Cl)CC2)cc1 [BCTC, N-(4-tertiarybutylphenyl)-4-(3-chloropyridin-2-yl) tetrahydropyrazine-1(2H)-carbox-amide]?
**A.** TRPV1 mediated STAT1-Ser^727 phosphorylation [3, 14]: decreases; Tyr STAT3 phosphorylation [3, 14]: without significantly altering

**Q.** OO [H2O2, hydrogen peroxide] was tested. Which “time of highest ERK activation post treatment” value [5] did it give?
**A.** Its value is 60 min.

**Q.** How did the p-STAT3 ([3]; JWH015 10 μM 30 min) turn out when CCCn1c(C)c(C(=O)c2cccc3ccccc23)c2ccccc21 [JWH015] was run?
**A.** The p-STAT3 was “increased p-STAT3”.

**Q.** Which results are given for O=[N+]([O-])c1ccc2c(c1)S(=O)(=O)C=C2 [STATTIC]?
**A.** cell death ([2]; STATTIC 100 nM alone): did not induce cell death; protective action of capsaicin against cisplatin-induced cell killing ([2]; STATTIC 100 nM pre-treatment): abrogated the protective action of capsaicin; Tyr^705 p-STAT3 levels ([3]; STATTIC 100 nM): significantly reduced

**Q.** How did the “capsaicin-induced Ser^727 p-STAT1” value [3] turn out when Cc1c(C(=O)NN2CCOCC2)nn(-c2ccc(Cl)cc2Cl)c1-c1ccc(I)cc1 [AM281] was run?
**A.** The value was “had no effect”.

**Q.** What about the “capsaicin-induced Tyr p-STAT3” value [3] of the same compound?
**A.** The value was “did not alter”.
